According to ChEMBL document CHEMBL4330129 (Bioorg Med Chem, 2019):
Values after ≈ are worked out from the molar mass of the structure shown.

Experiments:
[1] = Binding affinity to FLAG/His-tagged Keap1 (unknown origin)/biotinylated full-length FLAG/His/Tev/Avi-tagged Cul3 (unknown origin) expressed in baculovirus infected Sf9 insect cells measured after 1 hr by TR-FRET assay; design: species or system Homo sapiens
Keap1/Nrf2 = Keap1/Nrf2 (Homo sapiens, UniProt Q14145+Q16236); assay: Binding affinity to FLAG/His-tagged Keap1 (unknown origin)/biotinylated full-length FLAG/His/Tev/Avi-tagged NRF2 (unknown origin) expressed in baculovirus infected Sf9 insect cells measured after 1 hr by TR-FRET assay
Homo sapiens = organism: Homo sapiens; assay: Activation of Keap1/Cul3/Nrf2 in NHBE cells assessed as induction of HO-1 gene expression at 10 uM after 24 hrs by RT-PCR analysis relative to SFN; assay type: cell-based
[2] = Kinetic solubility of the compound at pH 7.4 by CLND method; assay type: physicochemical; conditions: buffer, read-out: Kinetic_solubility
[3] = Lipophilicity, log D of the compound at pH 7.4 by chromatographic method; assay type: physicochemical; conditions: buffer
[4] = Activation of Keap1/Cul3/Nrf2 in human BEAS2B cells assessed as increase in NQO1 levels measured after 48 hrs; assay type: cell-based; conditions: BEAS-2B

Keap1/Nrf2, sequence (Q16236 whole entry): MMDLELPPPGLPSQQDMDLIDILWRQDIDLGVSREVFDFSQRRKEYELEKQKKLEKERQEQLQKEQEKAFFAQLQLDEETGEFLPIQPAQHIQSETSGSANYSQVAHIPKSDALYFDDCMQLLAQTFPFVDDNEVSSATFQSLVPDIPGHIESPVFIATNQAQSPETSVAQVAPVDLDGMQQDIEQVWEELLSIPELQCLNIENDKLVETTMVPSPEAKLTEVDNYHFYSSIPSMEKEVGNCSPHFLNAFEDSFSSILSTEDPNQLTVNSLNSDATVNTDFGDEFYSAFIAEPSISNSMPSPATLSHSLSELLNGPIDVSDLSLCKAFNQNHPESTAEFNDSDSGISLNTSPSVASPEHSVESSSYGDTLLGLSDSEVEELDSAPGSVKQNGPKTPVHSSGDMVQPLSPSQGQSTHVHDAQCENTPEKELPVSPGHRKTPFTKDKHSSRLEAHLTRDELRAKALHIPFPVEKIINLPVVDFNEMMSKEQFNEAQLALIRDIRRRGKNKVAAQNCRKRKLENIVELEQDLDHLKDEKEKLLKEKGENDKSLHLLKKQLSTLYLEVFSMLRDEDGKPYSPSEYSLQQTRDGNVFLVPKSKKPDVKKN
Keap1/Nrf2, sequence (Q14145 whole entry): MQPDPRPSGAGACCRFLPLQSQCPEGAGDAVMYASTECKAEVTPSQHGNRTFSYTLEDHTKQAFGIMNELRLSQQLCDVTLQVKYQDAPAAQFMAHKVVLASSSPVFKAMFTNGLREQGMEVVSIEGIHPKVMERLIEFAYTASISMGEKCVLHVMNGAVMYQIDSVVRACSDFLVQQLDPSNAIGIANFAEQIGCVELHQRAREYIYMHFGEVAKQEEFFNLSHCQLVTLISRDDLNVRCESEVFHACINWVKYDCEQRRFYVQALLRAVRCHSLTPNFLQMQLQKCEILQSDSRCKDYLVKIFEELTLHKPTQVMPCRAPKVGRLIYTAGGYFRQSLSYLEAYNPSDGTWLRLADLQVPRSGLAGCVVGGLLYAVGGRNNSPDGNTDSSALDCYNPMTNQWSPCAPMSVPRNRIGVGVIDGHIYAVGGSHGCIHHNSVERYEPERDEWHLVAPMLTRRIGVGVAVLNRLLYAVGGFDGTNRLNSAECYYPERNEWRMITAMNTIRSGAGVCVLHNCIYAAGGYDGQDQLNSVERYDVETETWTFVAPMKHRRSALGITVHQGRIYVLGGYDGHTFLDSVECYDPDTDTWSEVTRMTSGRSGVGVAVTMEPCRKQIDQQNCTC

Compound	IC50 (Keap1/Nrf2) [µM]	solubility kinetic [2] [µM]	chromatographic logD [3]	EC50 [4] [µM]	pIC50 [1]	fold change (FC) (Homo sapiens)
C[S+]([O-])CCCCNC(=S)SCCSC(=S)NCCCC[S+](C)[O-] (stereo unspecified)	> 100	≥ 425	1.9	–	4.3	0.74
CCCCNCCSC(=S)NCCCC[S+](C)[O-] (stereo unspecified)	> 100	≥ 420	4.34	–	< 4	0.08
CN(C)CCS(=O)(=O)CCCCN=C=S	> 100	376 (≈ 94.1 µg/mL)	2.84	–	4.4	3.25
O=S(=O)(CCCCN=C=S)CCN1CCOCC1	> 100	273 (≈ 79.8 µg/mL)	2.93	–	< 4	0.22
CC(=O)CCCCN=C=S	> 100	206 (≈ 32.4 µg/mL)	4.21	–	4.1	0.9
C[S+]([O-])CCCCCN=C=S (stereo unspecified)	> 100	≥ 458	3.12	–	4.1	0.35
O=C(NCCCCN=C=S)OCc1ccccc1Cl	5.01	73 (≈ 21.8 µg/mL)	6.35	–	5.2	3.21
S=C=NCCN1CCSCC1	> 100	≥ 367	4.93	–	< 4	0.21
O=C(NCCCCN=C=S)c1cccnc1	50.1	≥ 289	2.63	–	4.1	1.78
O=C(NCCCCN=C=S)c1ccncc1	> 100	≥ 358	2.86	–	4.4	0.93
Cc1ccccc1S(=O)(=O)CCCCN=C=S	31.6	261 (≈ 70.3 µg/mL)	5.52	–	5	0.67
O=S1(=O)CCC(CN=C=S)C1 (stereo unspecified)	> 100	≥ 639	1.82	–	4.4	0.37
O=C(CCCCN=C=S)NCc1ccccc1	20	≥ 418	4.59	–	4.7	28
CC(=O)N(C)CCS(=O)(=O)CCCCN=C=S	> 100	≥ 340	2.4	–	< 4	0.29
CC(=O)N(C)CC[S+]([O-])CCCCN=C=S (stereo unspecified)	> 100	≥ 110	1.51	–	< 4	0.29
O=C(NCCCCN=C=S)Nc1cccnc1	39.8	≥ 428	2.79	–	4.5	13.6
CC(=O)NCC[S+]([O-])CCCCN=C=S (stereo unspecified)	> 100	≥ 180	1.09	–	< 4	0.15
O=S1(=O)CCN(CCN=C=S)CC1	> 100	≥ 274	2.33	–	< 4	0.19
CS(=O)(=O)N1CCC(CN=C=S)C1 (stereo unspecified)	> 100	≥ 451	3.22	–	4.1	0.68
O=C(NCCCCN=C=S)Nc1ccc2c(c1)OCO2	6.31	42 (≈ 12.3 µg/mL)	4.25	–	5	10.5
O=C(NCCCCN=C=S)Nc1ccc2c(c1)OCCO2	15.8	131 (≈ 40.3 µg/mL)	4.04	–	4.9	0.65
C[S+]([O-])CCCN=C=S (stereo unspecified)	> 100	331 (≈ 54 µg/mL)	0.85	–	< 4	0.47
[O-][S+](CCCCN=C=S)c1ccncc1 (stereo unspecified)	15.8 to 25.1	201 to 224 (≈ 48.3 to 53.8 µg/mL)	2.34 to 3.5	–	4.4	15.8 to 15.9
O=S(=O)(CC1(c2ccc(N=C=S)cc2)COC1)c1ccccc1	39.8	9 (≈ 3.11 µg/mL)	4.21	–	4.3	0.23
O=C(NCCCCN=C=S)c1ccno1	63.1	≥ 473	3.27	–	4.2	2.65
[O-][S+](CCCCN=C=S)c1ccccc1 (stereo unspecified)	50.1	213 (≈ 51 µg/mL)	4.11	–	4.3	5.99

Continued, in another order:

IC50 (Keap1/Nrf2) [µM]	solubility kinetic [2] [µM]	chromatographic logD [3]	EC50 [4] [µM]	Compound	pIC50 [1]	fold change (FC) (Homo sapiens)
2.51	2 (≈ 1.03 µg/mL)	7.72	–	CC(C)(C)OC(=O)N1CCC(SC(=S)NCCCCNC(=O)OCc2ccccc2Cl)CC1	4.8	40.3
15.8	42 (≈ 21.8 µg/mL)	5.02	–	CC(C)(C)OC(=O)N1CCC(SC(=S)NCCCCNC(=O)Nc2ccc3nccnc3c2)CC1	4.8	100
–	–	–	0.00871	COC(=O)[C@]12CCC(C)(C)C[C@H]1[C@H]1C(=O)C=C3[C@@]4(C)C=C(C#N)C(=O)C(C)(C)[C@@H]4CC[C@@]3(C)[C@]1(C)CC2 [BARDOXOLONE METHYL]	–	–
50.1	114 (≈ 53.3 µg/mL)	4.97	–	CC(C)(C)OC(=O)N1CCC(SC(=S)NCCCCNC(=O)Nc2cccnc2)CC1	4.3	2.88
39.8	341 (≈ 125 µg/mL)	5.41	–	O=S(=O)(CC1(N2CCC(CN=C=S)CC2)COC1)c1ccccc1	4.7	2.98
> 100	≥ 331	1.03	–	CN1CCC(SC(=S)NCC2CCS(=O)(=O)C2)CC1 (stereo unspecified)	< 4	0.38
50.1	242 (≈ 85.3 µg/mL)	5.02	–	O=S(=O)(CC1(N2CCC(CN=C=S)C2)COC1)c1ccccc1 (stereo unspecified)	4.7	8.15
> 100	255	0.22	–	C[S+]([O-])CCCCNC(=S)SC1CCNCC1.O=C(O)C(F)(F)F (stereo unspecified)	< 4	0.34
39.8	≥ 385	1.83	–	CN1CCC(SC(=S)NCCCCNC(=O)OCc2ccccn2)CC1	4.6	11.4
50.1	≥ 256	3	–	CN1CCC(SC(=S)NCCCCNC(=O)CC2CCCC2)CC1	4.5	31.3
50.1	≥ 323	1.52	–	Cl.O=C(NCCCCNC(=S)SC1CCNCC1)NC1CCCC1	4.6	3.46
20	≥ 451	2.4	–	CN1CCC(SC(=S)NCCCCNC(=O)NCc2ccccc2)CC1	4.9	14.5
> 100	≥ 536	0.81	–	CN1CCC(SC(=S)NCCCC[S+](C)[O-])CC1 (stereo unspecified)	< 4	0.93
> 100	9 (≈ 5.32 µg/mL)	7.89	–	CC(C)(C)OC(=O)N1CCC(SC(=O)NCCCCNC(=S)SC2CCN(C(=O)OC(C)(C)C)CC2)CC1	< 4	4.08
100	≥ 419	1.56	–	CN1CCC(SC(=S)NCCCCS(=O)(=O)c2ccncc2)CC1	4.5	2
> 100	372 (≈ 129 µg/mL)	3.81	–	C[S+]([O-])CCCCNC(=S)SCc1cccc([N+](=O)[O-])c1 (stereo unspecified)	< 4	0.39
50.1	17 (≈ 8.68 µg/mL)	6.04	–	CC(C)(C)OC(=O)N1CCC(SC(=S)NCCCCNC(=O)Nc2ccc3c(c2)OCO3)CC1	4.4	55.6
> 100	≥ 510	1.04	–	COC(=O)[C@H](CSC(=S)NCCCC[S+](C)[O-])NC(C)=O (stereo partly specified)	< 4	0.85
> 100	≥ 444	2.44	–	COC(=O)C(CS(=O)(=O)CCCCN=C=S)NC(C)=O (stereo unspecified)	4.3	0.16
50.1	281	0.49	–	Cl.O=C(NCCCCNC(=S)SC1CCNCC1)Nc1ccncc1	4.7	25.8
25.1	187 (≈ 68.5 µg/mL)	7.09	–	O=S(=O)(/C=C(\CO)CN1CCC(CN=C=S)CC1)c1ccccc1	5.6	25.3
> 100	80 (≈ 38.6 µg/mL)	5.67	–	CC(C)(C)OC(=O)N1CCC(SC(=S)NCCCCNC(=O)OCc2ccccn2)CC1	< 4	1.47
31.6	85 (≈ 39.8 µg/mL)	4.58	–	CC(C)(C)OC(=O)N1CCC(SC(=S)NCCCCNC(=O)Nc2ccncc2)CC1	4.6	20.7
